{"source": "ChEMBL document CHEMBL6096669", "about": "“Design and synthesis of novel derivatives of bisepoxylignans as potent anti-inflammatory agents involves the modulation of the M1/M2 microglia phenotype via TLR4/NF-κB signaling pathway” (Eur J Med Chem, 2025)", "key": {"[1]": {"test": "Biodistribution in C57BL/6 mouse lung at 20 mg/kg, IG measured after 15 mins", "assay_type": "ADME, organism-based", "settings": "in vivo, po, 0.25 h"}, "[2]": {"test": "Biodistribution in C57BL/6 mouse liver at 20 mg/kg, IG measured after 15 mins", "assay_type": "ADME, organism-based", "settings": "in vivo, po, 0.25 h"}, "BV-2 [3]": {"system": "BV-2", "test": "Anti-inflammatory activity against LPS-induced mouse BV-2 cells assessed as decrease in LPS-induced IL-6 mRNA expression at 5 uM incubated for 4 hrs followed by LPS induced for 12 hrs by RT-PCR analysis relative to control", "assay_type": "functional, cell-based", "settings": "time 16.0 hrs"}, "[4]": {"test": "Half life in rat at 20 mg/kg, po single dose", "assay_type": "ADME, organism-based", "settings": "in vivo"}, "BV-2 [5]": {"system": "BV-2", "test": "Anti-inflammatory activity against LPS-induced mouse BV-2 cells assessed as decrease in LPS-induced Cyclooxygenase-2 mRNA expression at 20 uM incubated for 4 hrs followed by LPS induced for 12 hrs by RT-PCR analysis relative to control", "assay_type": "functional, cell-based", "settings": "time 16.0 hrs"}, "BV-2 [6]": {"system": "BV-2", "test": "Anti-inflammatory activity against LPS-induced mouse BV-2 cells assessed as decrease in LPS-induced IL-1beta mRNA expression at 5 uM incubated for 4 hrs followed by LPS induced for 12 hrs by RT-PCR analysis relative to control", "assay_type": "functional, cell-based", "settings": "time 16.0 hrs"}, "Mus musculus [7]": {"system": "Mus musculus", "test": "Anti-neuroinflammatory activity against LPS-induced male C57BL/6 mouse assessed as suppression of LPS-induced neuronal damage by measuring increase in Nissl bodies at 20 mg/kg, po administered for 3 days followed by induced with LPS by tail vein injection", "assay_type": "functional, organism-based", "settings": "time 3.0 day"}, "[8]": {"test": "Tmax in rat at 20 mg/kg, po single dose", "assay_type": "ADME, organism-based", "settings": "in vivo"}, "Mus musculus [9]": {"system": "Mus musculus", "test": "Anti-neuroinflammatory activity against LPS-induced male C57BL/6 mouse assessed as suppression of LPS-induced microglial activation by measuring decrease in IBA1 fluorescence intensity at 20 mg/kg, po administered for 3 days followed by induced with LPS by tail vein injection by immunofluorescence staining based assay", "assay_type": "functional, organism-based", "settings": "time 3.0 day"}, "Mus musculus [10]": {"system": "Mus musculus", "test": "Anti-neuroinflammatory activity against LPS-induced male C57BL/6 mouse assessed as suppression of LPS-induced p-NF-kappaB protein level at 10 mg/kg, po administered for 3 days followed by induced with LPS by tail vein injection by Western blot analysis", "assay_type": "functional, organism-based", "settings": "time 3.0 day"}, "[11]": {"test": "Cytotoxicity against mouse BV-2 cells assessed as cell viability at 10 uM measured after 24 hrs by MTT assay relative to control", "assay_type": "toxicity, cell-based", "settings": "read-out: Activity"}, "BV-2 [12]": {"system": "BV-2", "test": "Anti-inflammatory activity against LPS-induced mouse BV-2 cells assessed as decrease in LPS-induced IL-1beta mRNA expression at 10 to 20 uM incubated for 4 hrs followed by LPS induced for 12 hrs by RT-PCR analysis relative to control", "assay_type": "functional, cell-based", "settings": "dose 10-20 µM, time 16.0 hrs"}, "[13]": {"test": "Inhibition of LPS-induced NO production in mouse BV-2 cells at 10 uM measured after 24 hrs followed by induced with LPS for another 24 hrs by ELISA relative to control", "assay_type": "functional"}, "[14]": {"test": "Ratio of AUC in brain to serum in rat at 20 mg/kg, po single dose", "assay_type": "ADME, organism-based"}, "BV-2 [15]": {"system": "BV-2", "test": "Anti-neuroinflammatory activity against LPS-induced mouse BV-2 cells assessed as smaller cell bodies and morphology at 20 uM by bright field microscopy relative to LPS-induced control", "assay_type": "functional, cell-based"}, "Mus musculus [16]": {"system": "Mus musculus", "test": "Anti-neuroinflammatory activity against LPS-induced male C57BL/6 mouse assessed as suppression of LPS-induced pathological changes in spleen at 20 mg/kg, po administered for 3 days followed by induced with LPS by tail vein injection by hematoxylin-eosin staining based assay", "assay_type": "functional, organism-based", "settings": "time 3.0 day"}, "BV-2 [17]": {"system": "BV-2", "test": "Anti-inflammatory activity against LPS-induced mouse BV-2 cells assessed as decrease in LPS-induced TNF-alpha mRNA expression at 5 uM incubated for 4 hrs followed by LPS induced for 12 hrs by RT-PCR analysis relative to control", "assay_type": "functional, cell-based", "settings": "time 16.0 hrs"}, "[18]": {"test": "AUCall in rat at 20 mg/kg, po single dose", "assay_type": "ADME, organism-based", "settings": "in vivo"}, "[19]": {"test": "MRT in rat at 20 mg/kg, po single dose", "assay_type": "ADME, organism-based", "settings": "in vivo"}, "[20]": {"test": "Acute toxicity in C57BL/6 mouse assessed as change in BUN level at 500 mg/kg, po single dose measured on day 8", "assay_type": "organism-based", "settings": "in vivo"}, "BV-2 [21]": {"system": "BV-2", "test": "Anti-inflammatory activity against LPS-induced mouse BV-2 cells assessed as decrease in LPS-induced iNOS mRNA expression at 10 to 20 uM incubated for 4 hrs followed by LPS induced for 12 hrs by RT-PCR analysis relative to control", "assay_type": "functional, cell-based", "settings": "dose 10-20 µM, time 16.0 hrs"}, "BV-2 [22]": {"system": "BV-2", "test": "Inhibition of LPS-induced NO production in mouse BV-2 cells measured after 24 hrs followed by induced with LPS for another 24 hrs by ELISA relative to control", "assay_type": "functional, cell-based"}, "[23]": {"test": "Biodistribution in C57BL/6 mouse kidney at 20 mg/kg, IG measured after 15 mins", "assay_type": "ADME, organism-based", "settings": "in vivo, po, 0.25 h"}, "BV-2 [24]": {"system": "BV-2", "test": "Anti-inflammatory activity against LPS-induced mouse BV-2 cells assessed as decrease in LPS-induced Cyclooxygenase-2 production at 5 uM incubated for 4 hrs followed by LPS induced for 24 hrs by Western blotting analysis", "assay_type": "functional, cell-based"}, "BV-2 [25]": {"system": "BV-2", "test": "Anti-inflammatory activity against LPS-induced mouse BV-2 cells assessed as decrease in LPS-induced Cyclooxygenase-2 mRNA expression at 5 to 20 uM incubated for 4 hrs followed by LPS induced for 12 hrs by RT-PCR analysis relative to control", "assay_type": "functional, cell-based", "settings": "dose 5-20 µM, time 16.0 hrs"}, "Mus musculus [26]": {"system": "Mus musculus", "test": "Anti-neuroinflammatory activity against LPS-induced male C57BL/6 mouse assessed as suppression of LPS-induced pathological changes in lung at 20 mg/kg, po administered for 3 days followed by induced with LPS by tail vein injection by hematoxylin-eosin staining based assay", "assay_type": "functional, organism-based", "settings": "time 3.0 day"}, "BV-2 [27]": {"system": "BV-2", "test": "Anti-inflammatory activity against LPS-induced mouse BV-2 cells assessed as decrease in LPS-induced TNF-alpha mRNA expression at 10 to 20 uM incubated for 4 hrs followed by LPS induced for 12 hrs by RT-PCR analysis relative to control", "assay_type": "functional, cell-based", "settings": "dose 10-20 µM, time 16.0 hrs"}, "[28]": {"test": "Cmax in rat at 20 mg/kg, po single dose", "assay_type": "ADME, organism-based", "settings": "in vivo"}, "Mus musculus [29]": {"system": "Mus musculus", "test": "Anti-neuroinflammatory activity against LPS-induced male C57BL/6 mouse assessed as suppression of LPS-induced p-IkappaB-alpha protein level at 20 mg/kg, po administered for 3 days followed by induced with LPS by tail vein injection by Western blot analysis", "assay_type": "functional, organism-based", "settings": "time 3.0 day"}, "Mus musculus [30]": {"system": "Mus musculus", "test": "Anti-neuroinflammatory activity against LPS-induced male C57BL/6 mouse assessed as suppression of LPS-induced p-I-kappaB-alpha protein level at 10 mg/kg, po administered for 3 days followed by induced with LPS by tail vein injection by Western blot analysis", "assay_type": "functional, organism-based", "settings": "time 3.0 day"}, "Mus musculus [31]": {"system": "Mus musculus", "test": "Anti-neuroinflammatory activity against LPS-induced male C57BL/6 mouse assessed as suppression of LPS-induced pathological changes in heart at 20 mg/kg, po administered for 3 days followed by induced with LPS by tail vein injection by hematoxylin-eosin staining based assay", "assay_type": "functional, organism-based", "settings": "time 3.0 day"}, "Mus musculus [32]": {"system": "Mus musculus", "test": "Anti-neuroinflammatory activity against LPS-induced male C57BL/6 mouse assessed as suppression of LPS-induced TLR4 protein level at 20 mg/kg, po administered for 3 days followed by induced with LPS by tail vein injection by Western blot analysis", "assay_type": "functional, organism-based", "settings": "time 3.0 day"}, "BV-2 [33]": {"system": "BV-2", "test": "Anti-inflammatory activity against LPS-induced mouse BV-2 cells assessed as decrease in LPS-induced TNFalpha production incubated for 4 hrs followed by LPS induced for 24 hrs by Western blotting analysis", "assay_type": "functional, cell-based", "settings": "dose 5-20 µM, time 28.0 hrs"}}, "note": "Calls of active or inactive are those of the source. The rule behind the calls is not given here."}
{"smiles": "O=c1[nH]c2ccc(Nc3ncnc4c3ccn4Cc3ccc(F)cc3)cc2[nH]1", "values": [{"measurement": "Drug uptake", "setting": "[1]", "value": "Active"}, {"measurement": "Drug uptake", "setting": "[2]", "value": "Active"}, {"measurement": "Activity", "setting": "BV-2 [3]", "value": "Not active; No Significant Effect Observed Vs Lps"}, {"measurement": "half-life", "setting": "[4]", "value": 5.91, "unit": "h"}, {"measurement": "Activity", "setting": "BV-2 [5]", "value": "Active"}, {"measurement": "Activity", "setting": "BV-2 [6]", "value": "Not active; No Significant Effect Observed Vs Lps"}, {"measurement": "Activity", "setting": "Mus musculus [7]", "value": "Active"}, {"measurement": "Tmax", "setting": "[8]", "value": 1, "unit": "h"}, {"measurement": "Activity", "setting": "Mus musculus [9]", "value": "Active"}, {"measurement": "Activity", "setting": "Mus musculus [10]", "value": "Not active; No Significant Effect Observed Vs Lps"}, {"measurement": "viability at 24 h, 10 µM", "setting": "[11]", "value": 95.3, "unit": "%"}, {"measurement": "Activity", "setting": "BV-2 [12]", "value": "Active"}, {"measurement": "inhibition at 10 µM", "setting": "[13]", "value": 95, "unit": "%"}, {"measurement": "Ratio", "setting": "[14]", "value": 1.9, "unit": "%"}, {"measurement": "Activity", "setting": "BV-2 [15]", "value": "Active"}, {"measurement": "Activity", "setting": "Mus musculus [16]", "value": "Active; Decreased Lps-Induced Visceral Injury (Cell Morphology, Hemorrhage, And Neutrophil Infiltration) And Maintaining Normal Cell Shape And Arrangement And Enhancing Infiltration Of Inflammatory Cells"}, {"measurement": "Activity", "setting": "BV-2 [17]", "value": "Not active; No Significant Effect Observed Vs Lps"}, {"measurement": "AUC", "setting": "[18]", "value": 43600, "unit": "ng·h/mL"}, {"measurement": "MRT", "setting": "[19]", "value": 6.2, "unit": "h"}, {"measurement": "Activity", "setting": "[20]", "value": "Non-toxic"}, {"measurement": "Activity", "setting": "BV-2 [21]", "value": "Active"}, {"measurement": "inhibition", "setting": "BV-2 [22]", "value": "Active"}, {"measurement": "Drug uptake", "setting": "[23]", "value": "Active"}, {"measurement": "Activity", "setting": "BV-2 [24]", "value": "Not active; No Significant Effect Observed Vs Lps"}, {"measurement": "Activity", "setting": "BV-2 [25]", "value": "Active"}, {"measurement": "Activity", "setting": "Mus musculus [26]", "value": "Active; Decreased Lps-Induced Visceral Injury (Cell Morphology, Hemorrhage, And Neutrophil Infiltration) And Maintaining Normal Cell Shape And Arrangement And Enhancing Infiltration Of Inflammatory Cells"}, {"measurement": "Activity", "setting": "BV-2 [27]", "value": "Active"}, {"measurement": "Cmax", "setting": "[28]", "value": 7490, "unit": "ng/mL"}, {"measurement": "Activity", "setting": "Mus musculus [29]", "value": "Active"}, {"measurement": "Activity", "setting": "Mus musculus [30]", "value": "Not active; No Significant Effect Observed Vs Lps"}, {"measurement": "Activity", "setting": "Mus musculus [31]", "value": "Active; Decreased Lps-Induced Visceral Injury (Cell Morphology, Hemorrhage, And Neutrophil Infiltration) And Maintaining Normal Cell Shape And Arrangement And Enhancing Infiltration Of Inflammatory Cells"}, {"measurement": "Activity", "setting": "Mus musculus [32]", "value": "Active"}, {"measurement": "Activity", "setting": "BV-2 [33]", "value": "Dose-dependent-effect"}]}
